# Values joined by “and” are separate entries in the source; they are usually repeats but may differ in a detail not shown here. Identical values can stand only once. Like-named read-outs stand apart in the source and are kept apart here.
# Key:
# [1] = human, in vivo
# [2] = Physiologically-based population pharmacokinetic analysis of CNS 7056 (Studies CNS 7056-001 and CNS 7056-002); conditions: for V3: arterial; for clearance: human, plasma, intravenous
# [3] = system: healthy volunteers and patients undergoing a colonoscopy; assay: animal or person; assay type: in vivo, human; conditions: for EC50: Homo sapiens, read-out: EC50, theta (RSE%)
# [4] = system: patients undergoing a colonoscopy; conditions: for Success rate n/N (%): Phase IIb (Study CNS7056-004); for Time to ready for discharge, Mean (SD): after last injection, first of three consecutive Aldrete scores of ≥ 9; for Time to ready for discharge, Mean (SD) / Time to fully alert, Mean (SD): ITT population; for Time to fully alert, Mean (SD): first of three consecutive MOAA/S scores of 5 after the last injection; for Time to Procedure Start, mean (SD): after initial dose
# [5] = human, in vivo; remark: listed apart in the source
# [6] = system: procedural sedation; conditions: Phase III, cited from earlier work
# [7] = system: procedural sedation; conditions: Phase II, cited from earlier work
# [8] = Run 142S, Lung/Central, 3 compartments
# [9] = Run 144S, Lung/Liver, 4 compartments
# [10] = highest dose regimen (8.0/3.0 mg)
# [11] = lowest dose regimen (5.0/3.0 mg)
# [12] = middle dose regimen (7.0/2.0 mg)
compound,measurement,setting,value
"COC(=O)CC[C@@H]1N=C(c2ccccn2)c2cc(Br)ccc2-n2c(C)cnc21 [CNS 7056, 3-[(4S)-8-bromo-1-methyl-6-(2-pyridinyl)-4H-imidazo[1,2-a][1,4]benzodiazepin-4-yl] propionic methyl ester]",Body weight as predictor of systemic clearance,[1],not a statistically significant predictor
same,"Blood/Plasma Cardiac Flow, theta (RSE%)","[2]; Run 128S, Lung, 3 compartments",173 (3.37) l/h
same,"Central Volume, eta IIV (RSE%)","[2]; Run 128S, Lung, 3 compartments",146.9 (52.9) %
same,"Central Volume, theta (RSE%)","[2]; Run 128S, Lung, 3 compartments",1.71 (15.2) I
same,"Deep Volume(5), theta (RSE%)","[2]; Run 128S, Lung, 3 compartments",23.4 (4.57) I
same,"Deep Volume, eta IIV (RSE%)","[2]; Run 128S, Lung, 3 compartments",22.55 (9.94) %
same,"Inter-Tissue Clearance(4), theta (RSE%)","[2]; Run 128S, Lung, 3 compartments",74.6 (3.29) I/h
same,"Inter-Tissue Clearance(5), theta (RSE%)","[2]; Run 128S, Lung, 3 compartments",25.7 (6.18) I/h
same,"Peripheral Volume(4), theta (RSE%)","[2]; Run 128S, Lung, 3 compartments",13.5 (9.18) I
same,"Peripheral Volume, eta IIV (RSE%)","[2]; Run 128S, Lung, 3 compartments",50.10 (18.0) %
same,"Pulmonary Clearance, eta IIV (RSE%)","[2]; Run 128S, Lung, 3 compartments",14.35 (6.07) %
same,"Pulmonary Clearance, theta (RSE%)","[2]; Run 128S, Lung, 3 compartments",49.1 (2.02) I/h
same,"Blood/Plasma Cardiac Flow, theta (RSE%)","[2]; Run 135S, Lung, 4 compartments",174 (3.59) l/h
same,"Central Volume, eta IIV (RSE%)","[2]; Run 135S, Lung, 4 compartments",190.2 (66.8) %
same,"Central Volume, theta (RSE%)","[2]; Run 135S, Lung, 4 compartments",1.24 (19.3) I
same,"Deep Volume(5), theta (RSE%)","[2]; Run 135S, Lung, 4 compartments",23.8 (4.78) I
same,"Deep Volume, eta IIV (RSE%)","[2]; Run 135S, Lung, 4 compartments",23.44 (10.3) %
same,"Deeper Volume(6), theta (RSE%)","[2]; Run 135S, Lung, 4 compartments",12 (20.4) I
same,"Inter-Tissue Clearance(4), theta (RSE%)","[2]; Run 135S, Lung, 4 compartments",68.5 (5.45) I/h
same,"Inter-Tissue Clearance(5), theta (RSE%)","[2]; Run 135S, Lung, 4 compartments",42 (5.57) I/h
same,"Inter-Tissue Clearance(6), theta (RSE%)","[2]; Run 135S, Lung, 4 compartments",3.12 (13.2) I/h
same,"Peripheral Volume(4), theta (RSE%)","[2]; Run 135S, Lung, 4 compartments",8.14 (12.8) I
same,"Peripheral Volume, eta IIV (RSE%)","[2]; Run 135S, Lung, 4 compartments",71.40 (25.4) %
same,"Pulmonary Clearance, eta IIV (RSE%)","[2]; Run 135S, Lung, 4 compartments",14.42 (6.13) %
same,"Pulmonary Clearance, theta (RSE%)","[2]; Run 135S, Lung, 4 compartments",48.7 (2.00) I/h
same,"Blood/Plasma Cardiac Flow, theta (RSE%)",[2]; [8],177 (3.54) l/h
same,"Central Volume, eta IIV (RSE%)",[2]; [8],143.6 (52.2) %
same,"Central Volume, theta (RSE%)",[2]; [8],1.93 (15.8) I
same,"Deep Volume(5), theta (RSE%)",[2]; [8],23.1 (4.58) I
same,"Deep Volume, eta IIV (RSE%)",[2]; [8],22.59 (10.0) %
same,"Extra-pulmonary Clearance, theta (RSE%)",[2]; [8],8.53 (52.4) I/h
same,"Inter-Tissue Clearance(4), theta (RSE%)",[2]; [8],72.4 (3.61) I/h
same,"Inter-Tissue Clearance(5), theta (RSE%)",[2]; [8],25.3 (6.16) I/h
same,"Peripheral Volume(4), theta (RSE%)",[2]; [8],13.4 (9.32) I
same,"Peripheral Volume, eta IIV (RSE%)",[2]; [8],50.48 (18.2) %
same,"Pulmonary Clearance, eta IIV (RSE%)",[2]; [8],17.12 (8.97) %
same,"Pulmonary Clearance, theta (RSE%)",[2]; [8],44.5 (6.11) I/h
same,"Blood/Plasma Cardiac Flow, theta (RSE%)",[2]; [9],175 (2.68) l/h
same,"Central Volume, eta IIV (RSE%)",[2]; [9],368.5 (105.) %
same,"Central Volume, theta (RSE%)",[2]; [9],0.834 (15.8) I
same,"Deep Volume(5), theta (RSE%)",[2]; [9],22.7 (5.28) I
same,"Deep Volume, eta IIV (RSE%)",[2]; [9],24.10 (10.9) %
same,"Deeper Volume(6), theta (RSE%)",[2]; [9],10.9 (16.7) I
same,"Extra-pulmonary Clearance, theta (RSE%)",[2]; [9],6.15 (49.7) I/h
same,"Inter-Tissue Clearance(4), theta (RSE%)",[2]; [9],46.2 (7.27) I/h
same,"Inter-Tissue Clearance(5), theta (RSE%)",[2]; [9],40 (5.12) I/h
same,"Inter-Tissue Clearance(6), theta (RSE%)",[2]; [9],3.07 (15.1) I/h
same,"Peripheral Volume(4), theta (RSE%)",[2]; [9],6.47 (13.5) I
same,"Peripheral Volume, eta IIV (RSE%)",[2]; [9],90.06 (30.2) %
same,"Pulmonary Clearance, eta IIV (RSE%)",[2]; [9],16.22 (7.32) %
same,"Pulmonary Clearance, theta (RSE%)",[2]; [9],45.0 (4.24) I/h
same,V3,"[2]; 0.65 x weight/70, Geom. Mean (Typical Value)",0.717 I
same,V3,"[2]; 0.65 x weight/70, Subject 1210",0.786 I
same,V3,"[2]; 0.65 × weight/70, Geom. Mean (Typical Value)",0.717 L
same,V3,"[2]; 0.65 × weight/70, Subject 1210",0.786 L
same,clearance,"[2]; both, Clearance, Geom. Mean (Typical Value)",819 mL/min
same,clearance,"[2]; both, systemic clearance",~1000 mL/min
same,clearance,"[2]; Clearance, Subject 1210",732 mL/min
same,contribution of the liver to clearance,[2]; modelling,~10%
same,"pulmonary extraction ratio, and first-pass metabolism",[2]; modelling,approximately 28%
same,V4,"[2]; peripheral, Subject 1210",21.59 L
same,systemic exposure,[2]; typical single dose 7 mg,approximately 0.12 mcg.h/ml
same,EC50,[3]; 1 min,0.332 µg/mL
same,EC50,[3]; 2 min,0.325 µg/mL
same,EC50,[3],0.369 µg/mL
same,EMAX,[3]; in vivo,5.0
same,"EMAX, fitted theta (RSE%)",[3]; in vivo,4.88 (1.20) and 4.85 (0.87)
same,"EMIN (first line so headed), eta IIV (RSE%)",[3]; in vivo,29.73 (15.2) and 28.87 (11.7)
same,"EMIN (second line so headed), eta IIV (RSE%)",[3]; in vivo,94.18 (38.7)
same,"Hill Coefficient (γ), theta (RSE%)",[3]; in vivo,3.16 (8.82) and 4.64 (8.81) and 3.92 (6.76) and 3.9 (7.10) and 3.93 (6.81)
same,"Hill Coefficient, eta IIV (RSE%)",[3]; in vivo,54.72 (24.0) % and 57.77 (24.8) % and 50.35 (22.3) % and 51.71 (22.7) % and 48.59 (21.4) % and 59.37 (25.3) %
same,Hill coefficient,[3]; in vivo,4.03 and 6.627
same,"Hill coefficient, eta IIV (RSE%)",[3]; in vivo,53.17 (23.0) and 69.49 (30.2)
same,"Hill coefficient, theta (RSE%)",[3]; in vivo,4.20 (7.47) and 4.62 (8.41)
same,"IIV for all three pharmacodynamic parameters (EC50, ke0, Hill coefficient)",[3]; in vivo,approximately 40%
same,increase in EC50 caused by scoping-factor,[3]; in vivo,10-12%
same,increase in EC50 during one- and two-minute spikes of increased MOAA/S score,[3]; in vivo,approximately 30%
same,ke0,[3]; in vivo,13.3 h⁻¹ and 12.17 h⁻¹
same,typical Hill coefficient,[3]; in vivo,4.03
same,Success rate n/N (%) (ITT),"[4]; 7.0 mg initial / 2.0 mg top-ups (middle dose regimen), 40 patients","38/40 (95.0%), p = 0.025"
same,Success rate n/N (%),[4]; 5.0/3.0 mg,39/40 (97.5%)
same,"Time to ready for discharge, Mean (SD)",[4]; 5.0/3.0 mg,13.5 (4.83) mins
same,"Time to fully alert, Mean (SD)",[4]; 5.0/3.0 mg,13.3 (7.21) mins
same,"Time to Procedure Start, mean (SD)",[4]; 5.0/3.0,2.65 (1.42) minutes
same,Success rate n/N (%),[4]; 7.0/2.0 mg,38/40 (95.0%)
same,"Time to Procedure Start, mean (SD)",[4]; 7.0/2.0 mg,3.03 (2.17) minutes
same,"Time to ready for discharge, Mean (SD)",[4]; 7.0/2.0 mg,14.0 (6.28) mins
same,"Time to fully alert, Mean (SD)",[4]; 7.0/2.0 mg,11.3 (5.69) mins
same,Success rate n/N (%),[4]; 8.0/3.0 mg,37/40 (92.5%)
same,"Time to Procedure Start, mean (SD)",[4]; 8.0/3.0 mg,2.23 (1.44) minutes
same,"Time to ready for discharge, Mean (SD)",[4]; 8.0/3.0 mg,16.8 (7.54) mins
same,"Time to fully alert, Mean (SD)",[4]; 8.0/3.0 mg,13.6 (7.48) mins
same,recovery to fully alert,[4]; [10],13.6 min
same,time to discharge,[4]; [10],16.8 min
same,related AESIs (adverse events of special interest),"[4]; human, in vivo",10
same,Success rate n/N (%) (ITT),[4]; in vivo,95%
same,patients requiring manual or mechanical ventilation,[4]; in vivo,no patient required manual or mechanical ventilation
same,time to fully alert compared to Midazolam,[4]; in vivo,shorter
same,recovery to fully alert,[4]; [11],13.3 min
same,time to discharge,[4]; [11],13.5 min
same,recovery to fully alert,[4]; [12],11.3 min
same,time to discharge,[4]; [12],14 min
same,V4,[5],21.59 I
CC(C)c1cccc(C(C)C)c1OCOP(=O)(O)O [Fospropofol],Success rate n/N (%),[6]; 6.5 mg/kg (labelled dose),137/158 (86.7%)
same,Success rate n/N (%),[7]; (labelled dose),18/26 (69.2%)
"Cc1ncc2n1-c1ccc(Cl)cc1C(c1ccccc1F)=NC2 [Midazolam, reference compound]",patients who did not respond to treatment and received Propofol as rescue medication,[4]; 2.5/1.0 mg,25%
same,Success rate n/N (%),[4]; 2.5/1.0 mg,30/40 (75.0%)
same,"Time to Procedure Start, mean (SD)",[4]; 2.5/1.0 mg,4.80 (3.19) minutes
same,"Time to ready for discharge, Mean (SD)",[4]; 2.5/1.0 mg,17.1 (7.33) mins
same,"Time to fully alert, Mean (SD)",[4]; 2.5/1.0 mg,15.2 (7.43) mins
same,Success rate n/N (%),[6]; 0.02 mg/kg,36/52 (69.2%)
same,Success rate n/N (%),[7]; 0.02 mg/kg,21/26 (80.8%)
